# Measured values taken from ChEMBL document CHEMBL3600354, “Nitric oxide inhibitory activity and antioxidant evaluations of 2-benzoyl-6-benzylidenecyclohexanone analogs, a novel series of curcuminoid and diarylpentanoid derivatives” (Bioorg Med Chem Lett, 2015).
# What was measured:
# RAW264.7 [1] = assay: Inhibition of nitric oxide production in LPS/IFNgamma-stimulated mouse RAW264.7 cells at 50 uM incubated for 17 hrs by Griess assay; type: functional; details: RAW264.7, 17 h
# RAW264.7 [2] = assay: Inhibition of nitric oxide production in LPS/IFNgamma-stimulated mouse RAW264.7 cells incubated for 17 hrs by Griess assay; type: functional, cell-based; details: RAW264.7, 17 h
# RAW264.7 [3] = assay: Cytotoxicity against LPS/IFNgamma-stimulated mouse RAW264.7 cells by MTT assay; type: cell-based
# [4] = Antioxidant activity assessed as nitric oxide radical scavenging activity at 500 uM incubated for 60 mins with light exposure at room temperature by Griess assay; type: physicochemical; details: 1 h
# [5] = Antioxidant activity assessed as DPPH radical scavenging activity at 200 uM incubated for 30 mins under dark conditions; type: physicochemical; details: 0.5 h
# [6] = Antioxidant activity incubated at 50 degC for 20 mins by FRAP assay; type: physicochemical
# [7] = Solubility in phosphate buffer at pH 7.4 stirred for 24 hrs at room temperature by HPLC method; type: physicochemical
# [8] = Chemical stability in phosphate buffer at pH 7.4 at 20 uM measured over 30 mins at 5 mins intervals at 25 degC by ultraviolet absorption spectroscopy; type: physicochemical; details: pH 7.4, 0.5 h
# [9] = Stability in human liver microsomes assessed as compound remaining at 1 mM pre-incubated at 37 degC for 5 mins followed by NAPDH addition and further incubated at 37 degC for 120 mins by HPLC method; type: ADME; details: read-out: Stability
# Liver microsome = assay: Stability in human liver microsomes assessed as compound degradation at 1 mM pre-incubated at 37 degC for 5 mins followed by NAPDH addition and further incubated at 37 degC for 15 to 120 mins by HPLC method; type: ADME; details: 1000 µM
# [10] = Antioxidant activity assessed as DPPH radical scavenging activity incubated for 30 mins under dark conditions; type: physicochemical
IC50 (RAW264.7 [2]) [µM],inhibition (INH) [4] [%],inhibition (INH) [5] [%],Activity [6] [mmolequiv/L],solubility at 24 h [7] [µM],Stability [8],"remaining at 2 h, 1000 µM [9] [%]",Stability (Liver microsome),IC50 [10] [µM],Compound,inhibition at 50 µM (RAW264.7 [1]) [%],IC50 (RAW264.7 [3]) [µM]
–,14.8,17.8,0.015,–,–,–,–,–,O=C(C1=C(O)/C(=C/c2cccc3ccccc23)CCC1)c1ccccc1,15,–
–,21,11.7,0.073,–,–,–,–,–,O=C(C1=C(O)/C(=C/c2ccc3ccccc3c2)CCC1)c1ccccc1,9.3,–
–,12.4,–,0.395,–,–,–,–,–,Cc1c(C)c2c(c(C)c1O)CCC(C)(C(=O)O)O2 (configuration not stated) [TROLOX],–,–

# Continued, molecule first:
Compound,IC50 (RAW264.7 [2]) [µM],inhibition (INH) [4] [%],inhibition (INH) [5] [%],Activity [6] [mmolequiv/L],solubility at 24 h [7] [µM],Stability [8],"remaining at 2 h, 1000 µM [9] [%]",Stability (Liver microsome),IC50 [10] [µM],inhibition at 50 µM (RAW264.7 [1]) [%],IC50 (RAW264.7 [3]) [µM]
COc1cccc(/C=C2\CCCC(C(=O)c3ccccc3)=C2O)c1,32.1,28.3,21.8,0.018,–,–,–,–,–,71.6,> 100
O=C(C1=C(O)/C(=C/c2ccc(O)c(O)c2)CCC1)c1ccccc1,–,–,–,–,3.3,Stable,> 60,Unstable,–,–,–
O=C(C1=C(O)/C(=C/c2cccs2)CCC1)c1ccccc1,–,3.3,21.8,0.177,–,–,–,–,–,8.2,–
Cc1ccc(/C=C2\CCCC(C(=O)c3ccccc3)=C2O)s1,–,1.6,18.4,0.14,–,–,–,–,–,7.6,–
O=C1O[C@H]([C@@H](O)CO)C(O)=C1O [ASCORBIC ACID],–,2.6,–,–,–,–,–,–,–,–,–
Cc1cc(C(C)(C)C)c(O)c(C(C)(C)C)c1 [BUTYLATED HYDROXYTOLUENE],–,6.5,–,0.798,–,–,–,–,–,–,–
COc1cc(/C=C/C(=O)CC(=O)/C=C/c2ccc(O)c(OC)c2)ccc1O [CURCUMIN],14.7,88.3,84.2,0.803,1.1,Unstable,< 20,Unstable,23.6,99.3,28.8
